# Assays:
# [1] = molecular target: T1, Bcl-xL (Homo sapiens, UniProt Q07817); test: Target expression analysis by western blot (Bcl-xL) in IGROV1-R10 cells; assay type: cell-based; conditions: 24 h exposure, 1 μM
# T1 construct: endogenous in cells; host or cells: IGROV1-R10 (human platinum-resistant ovarian carcinoma)
# Procedure: (§1) Human platinum resistant ovarian carcinoma cells IGROV1-R10 were used. This cell line was grown in RPMI 1640 medium supplemented with 2 mM Glutamax™, 25 mM HEPES, 10% fetal calf serum, and 33 mM sodium bicarbonate (Fisher Scientific, Illkirch, France). Cells were maintained at 37° C. in a humid atmosphere with 5% C02. Cells were seeded in 25 cm^2 flasks. After 24 h, exponentially growing cells were exposed to 1 μM of compounds for 24 h. CRBN-PBM1-001 targeting both Mcl-1 and CRBN and Pyridoclax were designed and synthetized by the CERMN (Centre d'Etudes et de Recherche sur le Médicament de Normandie) and dissolved in DiMethyl SulfOxide (DMSO, Sigma-Aldrich).
# (§2) Cells were rinsed with ice-cold PBS, suspended in a lysis buffer [RIPA: NaCl 150 mM, Tris (pH 8) 50 mM, Triton X100 1%, PMSF 4 mM, EDTA 5 mM, NaF 10 mM, NaPPi 10 mM, Na3VO4 1 mM, aprotinin 0.5 μL/mL and 4.6 mL ultra-pure water] and incubated on ice for 30 min. Lysates were collected after centrifugation (13200 g, 10 min, 4° C.) and protein concentrations were determined using the Bradford assay (Bio-Rad, Hercules, USA). Equal amounts of protein (25 μg) were separated by SDS-PAGE on a 4-15% gradient polyacrylamide Mini-PROTEAN®TGX™ precast gel (Bio-Rad). […] The relative intensities of the protein bands were quantified using the ImageJ software, and the values were normalized to the intensities of the respective Actin signals. […]
# [2] = molecular target: T2, Mcl-1 (Homo sapiens, UniProt Q07820); test: Target expression analysis by western blot (Mcl-1) in IGROV1-R10 cells; assay type: cell-based; conditions: 24 h exposure, 1 μM
# T2 construct: endogenous in cells; host or cells: IGROV1-R10 (human platinum-resistant ovarian carcinoma)
# Procedure: as §1, §2
# T2 sequence (Q07820 whole entry): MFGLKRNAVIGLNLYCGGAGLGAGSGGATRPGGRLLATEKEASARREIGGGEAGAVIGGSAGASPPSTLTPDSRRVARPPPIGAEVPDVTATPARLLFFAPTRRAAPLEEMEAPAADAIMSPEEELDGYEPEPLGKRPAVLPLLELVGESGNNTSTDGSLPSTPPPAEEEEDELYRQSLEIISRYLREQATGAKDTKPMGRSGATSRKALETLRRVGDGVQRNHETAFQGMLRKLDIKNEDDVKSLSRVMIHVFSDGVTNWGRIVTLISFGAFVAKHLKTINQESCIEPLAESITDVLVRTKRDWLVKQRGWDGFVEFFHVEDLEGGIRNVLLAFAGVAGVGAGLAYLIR
# T1 sequence (Q07817 whole entry): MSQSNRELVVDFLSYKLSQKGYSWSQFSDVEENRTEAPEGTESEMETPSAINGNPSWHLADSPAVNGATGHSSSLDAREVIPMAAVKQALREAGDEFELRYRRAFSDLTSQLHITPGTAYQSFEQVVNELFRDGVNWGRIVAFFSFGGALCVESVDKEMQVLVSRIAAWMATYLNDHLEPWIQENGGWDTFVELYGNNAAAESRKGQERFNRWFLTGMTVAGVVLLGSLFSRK
Bcl-xL expression [1],decrease of Mcl-1 expression ([2]; densitometry analysis of western blot normalized to Actin) [%],"Mcl-1 expression (modulation) ([2]; single agent, western blot)",SMILES
not affected,52,,Cc1cc(-c2ncc(C#CCOCCOCCNc3cccc4c3C(=O)N(C3CCC(=O)NC3=O)C4=O)cc2/C=C/c2ccccc2)cnc1-c1cccnc1 (stereo not drawn) [CRBN-PBM1-001]
,,did not modulate,"Cc1cc(-c2ncc(-c3cccnc3)cc2/C=C/c2ccccc2)cnc1-c1cccnc1 [Pyridoclax, reference compound]"

# From patent US12643894B2, “BCL-2 family proteins modulating compounds for cancer treatment” (CENTRE REGIONAL DE LUTTE CONTRE LE CANCER FRANCOIS BACLESSE, priority 2020, dated 2026)
